Assay [1] concerns SRS-mediated bronchoconstriction. Put plainly: Standard assay for inhibitors of SRS-mediated bronchoconstriction in sensitized guinea pigs. The assay is classed as in vivo, guinea pig (male Hartly). Conditions: for ED50: Cavia porcellus, po, 1 h; for antiasthmatic activity when administered orally: oral. How it is done:
Guinea pigs sensitized to ovalbumin and challenged intravenously with this antigen in the presence of the cyclooxygenase inhibitor, indomethacin (IM), an antihistamine, methapyriline, and a beta-antagonist, propranolol,undergo a delayed (3-13 minutes) bronchospasm, presumed due to the synthesis and release of SRS (leukotriene C, D, and E). A Buxco respiratory mechanics analyzer is used to evaluate the in vivo efficacy of inhibitors of the lipoxygenase pathway in this model of SRS-mediated bronchoconstriction. This system monitors pulmonary air flow, through use of a whole body plethysomgraph, and transpulmonary pressure, from tracheal and intrapleural catheters. Tidal volume is derived from the flow signal by integration, and airway resistance (R) and dynamic compliance (^C dyn) are continuously computed by the system from the primary flow, volume, and pressure parameters. In addition, the system continuously monitors blood pressure and heart rate.
Male Hartly guinea pigs (200 g) ar sensitized by injecting ovalbumin (OA) (10 mg/kg) (each injection also contains 16 mg Amphojel) ip o days 0 and 2. These animals are normally used on days 10-18 following initial sensitization.
On the test day animals are anesthetized by ip injection of urethane (1.2-1.5 g/kg. The jugular vein and carotid artery are catheterized using intramedic PR50 tubing. The trachea is catheterized using intramedic PE240 tubing. Spontaneous respiration is arrested by injecting succinyl choline (2.0 mg/kg, iv) into the jugular vein, and the animal is artificially respirated at 48 breaths/minute with a volume of 4.0 ml/breath. Intramedic PE200 tubing is inserted through the chest wall into the intrapleural space, and the tracheal (by sidearm attachment) and intrapleural cannulas are attached to a single pressure transducer in order to obtain the transpulmonary pressure. The standard protocol requires an initial injection of indomethacin (meglumine salt) (10 mg/kg, iv). Five minutes later antihistamine (methapyrilene, 2 mg/kg, iv) is given, followed one minute later by propranolol (0.1 mg/kg, iv) to induce leukotriene induced bronchoconstriction with no histamine-induced bronchoconstriction and no beta-agonistic bronchoconstriction. Respiratory parameters are then allowed to stabilize for 5-15 minutes. Drugs are tested for oral activity by giving the compound by gavage to 18 hour fasted animals one hour prior to anesthetization. At restabilization, base lines are recorded by the computer for all parameters. To induce bronchoconstriction, a challenge dose of OA (0.4 mg/kg, iv) is given.
Results are expressed as % of baseline values after antigen challenge for R and ^C dyn, and percent inhibition is calculated by comparing % changes in baseline values between control (vehicle) and drug treated test groups.
Statistical significance is determined using a two tailed, unpaired T-test. Drug effects with p<0.05 will be considered significant.
Test compounds were evaluated for their ability to inhibit SRS-mediated changes in dynamic compliance (^C dyn) and resistance (R) as compared to the medicated (indomethacin-methapyrilenepropranolol) control group.

For assay [2] the test system is unchanged. The assay is described as above. Type of assay: in vivo, guinea pig (male Hartly). Conditions: 10 mg/kg, iv less than one minute before OA challenge.
Setting [3] is: 5.0 mg/kg P.O., one hour before i.v. antigen challenge.
Setting [4] is: 12.5 mg/kg P.O., one hour before i.v. antigen challenge.
Where [5] appears, read: 25.0 mg/kg P.O., one hour before i.v. antigen challenge.
Setting [6] is: 50.0 mg/kg P.O., one hour before i.v. antigen challenge.
[7] abbreviates: P.O., one hour before i.v. antigen challenge, read-out: ED50^Cdyn (dose producing 50% inhibition of SRS-mediated changes in dynamic compliance).
Where [8] appears, read: P.O., one hour before i.v. antigen challenge, read-out: ED50^R (dose producing 50% inhibition of SRS-mediated changes in resistance).
Where [9] appears, read: 3.0 mg/kg P.O., one hour before i.v. antigen challenge.
[10] abbreviates: 6.0 mg/kg P.O., one hour before i.v. antigen challenge.
Where [11] appears, read: 9.0 mg/kg P.O., one hour before i.v. antigen challenge.

Each structure is given as a SMILES string. Where two headings read alike, the source gives them in different places.

Turning to `COc1ccc2cc(Nc3ccc(O)cc3)ccc2c1` [Example 2, 4-[(6-Methoxy-2-naphthyl)amino]phenol], the “Dynamic Compliance (Cdyn), % of baseline following antigen challenge (mean ± S.E.)” value (shortened to “Dynamic Compliance (Cdyn), %”) in assay [1] (setting [3]) is recorded as 23 ± 7 % of Baseline; in assay [1] (setting [4]), 44 ± 5 % of Baseline; in assay [1] (setting [5]), 62 ± 7 % of Baseline; in assay [1] (setting [6]), 66 ± 4 % of Baseline. Further, the “Dynamic Compliance (Cdyn), Inhibition (%)” value in assay [1] (setting [3]) is 3%; in assay [1] (setting [4]), 33%; in assay [1] (setting [5]), 52%; in assay [1] (setting [6]), 57%. Besides, the “Resistance (R), % of baseline following antigen challenge (mean ± S.E.)” value (from here on “Resistance (R), %”) in assay [1] (setting [3]) is reported as 335 ± 74 % of Baseline; in assay [1] (setting [4]), 231 ± 39 % of Baseline; in assay [1] (setting [5]), 194 ± 42 % of Baseline; in assay [1] (setting [6]) it was 149 ± 11 % of Baseline. The “Resistance (R), Inhibition (%)” value in assay [1] (setting [3]) is listed as 23%; in assay [1] (setting [4]) it was 57%; in assay [1] (setting [5]), 69%; in assay [1] (setting [6]), 84%. The median effective dose (ED50) (as a rule, the dose that gives a 50% effect, or the effect in half of the subjects) was 23.8 mg/kg in assay [1] (setting [7]) and 6 mg/kg in assay [1] (setting [8]). In addition, the oral activity entry in assay [1] (P.O., one hour before antigen challenge) is “orally active”. The “ED50^Cdyn (dose producing 50% inhibition of SRS-mediated changes in dynamic compliance)” value in assay [1] (P.O., one hour before i.v. antigen challenge) is recorded as 23.8(14.1-51.7) mg/kg. The “antiasthmatic activity when administered orally” value (from here on “antiasthmatic activity”) in assay [1] was “exhibit antiasthmatic activity”.

With `COc1ccc2cc(N(C)c3ccc(O)cc3)ccc2c1` [Example 17], the “Dynamic Compliance (Cdyn), %” value is 19 ± 11 % of Baseline in assay [1] (setting [9]); 31 ± 20 % of Baseline in assay [1] (setting [10]); 64 ± 8 % of Baseline in assay [1] (setting [11]); 64 ± 7 % of Baseline in assay [1] (setting [4]); 57 ± 10 % of Baseline in assay [1] (setting [5]). For the same compound, the “Dynamic Compliance (Cdyn), Inhibition (%)” value stood at 0% in assay [1] (setting [9]); 15% in assay [1] (setting [10]); 56% in assay [1] (setting [11]); 56% in assay [1] (setting [4]); 47% in assay [1] (setting [5]). For the same compound, the “Resistance (R), %” value in assay [1] (setting [9]) is on record as 467 ± 134 % of Baseline; in assay [1] (setting [10]) it was 374 ± 132 % of Baseline; in assay [1] (setting [11]), 141 ± 28 % of Baseline; in assay [1] (setting [4]), 136 ± 10 % of Baseline; in assay [1] (setting [5]), 149 ± 23 % of Baseline. Further, the “Resistance (R), Inhibition (%)” value in assay [1] (setting [9]) came out at 0%; in assay [1] (setting [10]), 1%; in assay [1] (setting [11]), 85%; in assay [1] (setting [4]), 88%; in assay [1] (setting [5]), 82%. The ED50 in assay [1] (setting [7]) and in assay [1] (setting [8]) was 6 to 9 mg/kg throughout. The “inhibition of antigen-induced bronchoconstriction” value in assay [1] (PO one hour before antigen challenge) is reported as “significantly inhibited”. Besides, in assay [1], the “antiasthmatic activity” value is given as “exhibit antiasthmatic activity”.

For `CCCc1c(OCC(O)COc2ccc3c(=O)cc(C(=O)O)oc3c2CCC)ccc(C(C)=O)c1O` (stereo not shown) [FPL-55712], the “inhibition of bronchoconstriction as measured by effects on R and Cdyn” value in assay [2] was 100%.

As to `COc1ccc(Nc2ccc(O)cc2)c(CO)c1` [SQ 30,624, 2-[(4-Hydroxyphenyl)amino]-5-methoxybenzenemethanol, reference compound], in assay [1] (setting [6]), the “Dynamic Compliance (Cdyn), %” value is 4 ± 3 % of Baseline; the “Dynamic Compliance (Cdyn), Inhibition (%)” value was 0%; the “Resistance (R), %” value is recorded as 386 ± 64 % of Baseline; the “Resistance (R), Inhibition (%)” value came to 15%. In assay [1] (dose of 50 mg/kg P.O.), the oral activity result is “orally inactive”. Moreover, the “antiasthmatic activity” value in assay [1] is “did not have antiasthmatic activity”.
